{"source": "the kinase profiling compilation of Christmann-Franck et al. (2016)", "experiment_in_all_cases": "KINOMEscan competition binding", "conditions_in_all_cases": "compound 2.0 µM", "key": {"[1]": {"molecular_target": "SIK2 (human) (UniProt Q9H0K1)"}, "[2]": {"molecular_target": "MAPK10 (human) (UniProt P53779)"}, "[3]": {"molecular_target": "MYO3B (human) (UniProt Q8WXR4)"}, "[4]": {"molecular_target": "YES1 (human) (UniProt P07947)"}, "[5]": {"molecular_target": "NTRK3 (human) (UniProt Q16288)"}, "[6]": {"molecular_target": "STK17B (human) (UniProt O94768)"}, "[7]": {"molecular_target": "MKNK1 (human) (UniProt Q9BUB5)"}, "[8]": {"molecular_target": "DAPK2 (human) (UniProt Q9UIK4)", "sequence (Q9UIK4 whole entry, looked up)": "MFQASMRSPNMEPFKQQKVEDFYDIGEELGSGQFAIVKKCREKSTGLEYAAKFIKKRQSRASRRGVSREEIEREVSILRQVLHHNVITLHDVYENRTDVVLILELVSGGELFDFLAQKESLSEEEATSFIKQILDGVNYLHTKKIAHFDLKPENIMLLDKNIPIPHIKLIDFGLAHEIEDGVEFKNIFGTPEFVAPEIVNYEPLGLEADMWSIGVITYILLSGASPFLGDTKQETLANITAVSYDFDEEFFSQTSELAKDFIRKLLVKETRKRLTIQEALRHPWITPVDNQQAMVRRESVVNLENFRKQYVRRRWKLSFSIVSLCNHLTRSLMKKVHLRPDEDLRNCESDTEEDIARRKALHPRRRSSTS"}, "[9]": {"molecular_target": "RPS6KB1 (human) (UniProt P23443)"}, "[10]": {"molecular_target": "CDK15 (human) (UniProt Q96Q40)"}, "[11]": {"molecular_target": "DCLK2 (human) (UniProt Q8N568)"}, "[12]": {"tested_on": "KIT (human), P10721 [D816V]"}, "[13]": {"molecular_target": "LTK (human) (UniProt P29376)"}, "[14]": {"molecular_target": "MAP3K11 (human) (UniProt Q16584)"}, "[15]": {"molecular_target": "AKT3 (human) (UniProt Q9Y243)", "sequence (Q9Y243 whole entry, looked up)": "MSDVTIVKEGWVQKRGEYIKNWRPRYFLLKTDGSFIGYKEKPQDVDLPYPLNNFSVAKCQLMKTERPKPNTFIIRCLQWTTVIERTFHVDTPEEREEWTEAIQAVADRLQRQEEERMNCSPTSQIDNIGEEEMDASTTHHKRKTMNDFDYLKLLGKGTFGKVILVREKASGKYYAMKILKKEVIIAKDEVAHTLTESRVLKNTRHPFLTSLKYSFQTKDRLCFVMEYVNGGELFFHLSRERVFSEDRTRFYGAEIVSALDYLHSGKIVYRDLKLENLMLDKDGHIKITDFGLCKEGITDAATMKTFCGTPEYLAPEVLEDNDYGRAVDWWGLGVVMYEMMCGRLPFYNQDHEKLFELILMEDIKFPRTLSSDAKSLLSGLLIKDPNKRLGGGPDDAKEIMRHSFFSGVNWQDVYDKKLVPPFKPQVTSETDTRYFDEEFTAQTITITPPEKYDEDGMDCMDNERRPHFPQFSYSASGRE"}, "[16]": {"molecular_target": "FRK (human) (UniProt P42685)"}, "[17]": {"molecular_target": "CRK2 (P.falciparum) (UniProt P61075)"}, "[18]": {"tested_on": "EGFR (human), P00533 [T790M]"}, "[19]": {"molecular_target": "MAPKAPK2 (human) (UniProt P49137)"}, "[20]": {"tested_on": "EGFR (human), P00533 [G719C]"}, "[21]": {"molecular_target": "CDK4 CCND1 (human) (UniProt P11802+P24385)"}, "[22]": {"molecular_target": "RIPK4 (human) (UniProt P57078)", "sequence (P57078 whole entry, looked up)": "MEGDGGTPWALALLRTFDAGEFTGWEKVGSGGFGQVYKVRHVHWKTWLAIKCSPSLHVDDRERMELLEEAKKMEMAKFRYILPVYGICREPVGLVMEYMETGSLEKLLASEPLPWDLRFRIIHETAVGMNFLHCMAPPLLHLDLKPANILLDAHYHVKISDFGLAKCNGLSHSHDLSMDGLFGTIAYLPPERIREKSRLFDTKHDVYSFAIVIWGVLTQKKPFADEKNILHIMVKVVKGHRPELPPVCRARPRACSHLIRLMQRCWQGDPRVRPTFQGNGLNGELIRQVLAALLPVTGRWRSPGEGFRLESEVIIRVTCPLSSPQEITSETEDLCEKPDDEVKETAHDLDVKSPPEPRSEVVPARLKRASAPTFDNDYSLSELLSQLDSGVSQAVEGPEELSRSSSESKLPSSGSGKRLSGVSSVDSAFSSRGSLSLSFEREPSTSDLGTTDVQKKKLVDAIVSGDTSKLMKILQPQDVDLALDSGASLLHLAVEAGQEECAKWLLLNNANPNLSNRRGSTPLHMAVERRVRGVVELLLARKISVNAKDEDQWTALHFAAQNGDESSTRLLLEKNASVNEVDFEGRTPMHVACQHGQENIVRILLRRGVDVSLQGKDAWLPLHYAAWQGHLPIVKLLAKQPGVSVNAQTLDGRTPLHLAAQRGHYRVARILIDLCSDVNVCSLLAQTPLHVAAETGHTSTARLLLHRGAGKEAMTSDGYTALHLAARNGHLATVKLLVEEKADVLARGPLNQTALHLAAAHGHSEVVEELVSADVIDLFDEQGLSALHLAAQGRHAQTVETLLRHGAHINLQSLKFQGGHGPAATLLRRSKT"}, "[23]": {"molecular_target": "SRPK3 (human) (UniProt Q9UPE1)"}, "[24]": {"molecular_target": "AURKB (human) (UniProt Q96GD4)"}, "[25]": {"molecular_target": "EPHA2 (human) (UniProt P29317)", "sequence (P29317 whole entry, looked up)": "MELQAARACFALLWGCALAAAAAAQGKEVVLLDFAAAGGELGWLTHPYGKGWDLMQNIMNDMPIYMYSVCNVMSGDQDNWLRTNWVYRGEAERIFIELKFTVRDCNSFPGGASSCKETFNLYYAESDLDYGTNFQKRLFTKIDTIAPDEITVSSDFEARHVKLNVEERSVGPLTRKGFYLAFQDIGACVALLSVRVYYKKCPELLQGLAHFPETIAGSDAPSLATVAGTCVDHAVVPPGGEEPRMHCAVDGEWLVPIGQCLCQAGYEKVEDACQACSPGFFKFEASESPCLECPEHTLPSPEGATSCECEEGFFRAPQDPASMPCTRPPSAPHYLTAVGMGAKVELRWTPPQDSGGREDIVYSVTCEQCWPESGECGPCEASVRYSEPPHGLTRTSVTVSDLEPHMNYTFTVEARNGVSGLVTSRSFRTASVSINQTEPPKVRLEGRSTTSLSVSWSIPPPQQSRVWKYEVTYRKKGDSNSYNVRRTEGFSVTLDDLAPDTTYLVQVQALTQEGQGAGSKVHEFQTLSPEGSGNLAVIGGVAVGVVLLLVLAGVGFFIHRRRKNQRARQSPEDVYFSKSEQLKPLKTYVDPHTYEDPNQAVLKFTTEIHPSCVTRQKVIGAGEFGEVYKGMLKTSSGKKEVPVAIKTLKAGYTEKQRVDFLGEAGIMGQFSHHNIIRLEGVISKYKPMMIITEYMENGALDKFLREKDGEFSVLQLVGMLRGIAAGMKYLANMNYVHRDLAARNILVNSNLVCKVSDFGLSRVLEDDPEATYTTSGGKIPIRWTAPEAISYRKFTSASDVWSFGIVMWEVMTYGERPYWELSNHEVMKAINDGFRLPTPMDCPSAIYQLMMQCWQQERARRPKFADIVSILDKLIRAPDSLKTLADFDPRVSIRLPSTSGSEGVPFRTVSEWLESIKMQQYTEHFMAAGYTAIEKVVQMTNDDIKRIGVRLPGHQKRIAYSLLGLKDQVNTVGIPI"}, "[26]": {"tested_on": "KIT (human), P10721 [D816H]"}, "[27]": {"molecular_target": "DYRK1B (human) (UniProt Q9Y463)"}, "[28]": {"molecular_target": "HIPK4 (human) (UniProt Q8NE63)"}, "[29]": {"molecular_target": "NEK5 (human) (UniProt Q6P3R8)"}, "[30]": {"molecular_target": "STK16 (human) (UniProt O75716)"}, "[31]": {"molecular_target": "RPS6KA6 KD2 (human) (UniProt Q9UK32)"}, "[32]": {"molecular_target": "FGFR4 (human) (UniProt P22455)"}, "[33]": {"molecular_target": "NLK (human) (UniProt Q9UBE8)", "sequence (Q9UBE8 whole entry, looked up)": "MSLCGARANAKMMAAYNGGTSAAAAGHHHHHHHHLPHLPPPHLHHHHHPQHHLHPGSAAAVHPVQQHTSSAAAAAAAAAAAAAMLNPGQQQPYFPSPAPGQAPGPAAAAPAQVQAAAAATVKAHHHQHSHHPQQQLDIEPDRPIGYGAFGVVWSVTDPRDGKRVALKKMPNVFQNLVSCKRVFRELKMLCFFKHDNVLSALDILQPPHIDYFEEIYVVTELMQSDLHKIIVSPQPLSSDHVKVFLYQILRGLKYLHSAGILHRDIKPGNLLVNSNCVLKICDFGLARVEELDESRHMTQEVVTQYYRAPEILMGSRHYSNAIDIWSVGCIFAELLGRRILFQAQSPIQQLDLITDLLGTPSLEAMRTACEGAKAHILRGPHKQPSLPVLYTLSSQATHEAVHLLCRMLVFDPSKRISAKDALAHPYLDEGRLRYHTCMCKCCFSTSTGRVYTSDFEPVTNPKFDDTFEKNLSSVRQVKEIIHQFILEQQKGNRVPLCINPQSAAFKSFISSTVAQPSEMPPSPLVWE"}, "[34]": {"molecular_target": "MAP4K1 (human) (UniProt Q92918)", "sequence (Q92918 whole entry, looked up)": "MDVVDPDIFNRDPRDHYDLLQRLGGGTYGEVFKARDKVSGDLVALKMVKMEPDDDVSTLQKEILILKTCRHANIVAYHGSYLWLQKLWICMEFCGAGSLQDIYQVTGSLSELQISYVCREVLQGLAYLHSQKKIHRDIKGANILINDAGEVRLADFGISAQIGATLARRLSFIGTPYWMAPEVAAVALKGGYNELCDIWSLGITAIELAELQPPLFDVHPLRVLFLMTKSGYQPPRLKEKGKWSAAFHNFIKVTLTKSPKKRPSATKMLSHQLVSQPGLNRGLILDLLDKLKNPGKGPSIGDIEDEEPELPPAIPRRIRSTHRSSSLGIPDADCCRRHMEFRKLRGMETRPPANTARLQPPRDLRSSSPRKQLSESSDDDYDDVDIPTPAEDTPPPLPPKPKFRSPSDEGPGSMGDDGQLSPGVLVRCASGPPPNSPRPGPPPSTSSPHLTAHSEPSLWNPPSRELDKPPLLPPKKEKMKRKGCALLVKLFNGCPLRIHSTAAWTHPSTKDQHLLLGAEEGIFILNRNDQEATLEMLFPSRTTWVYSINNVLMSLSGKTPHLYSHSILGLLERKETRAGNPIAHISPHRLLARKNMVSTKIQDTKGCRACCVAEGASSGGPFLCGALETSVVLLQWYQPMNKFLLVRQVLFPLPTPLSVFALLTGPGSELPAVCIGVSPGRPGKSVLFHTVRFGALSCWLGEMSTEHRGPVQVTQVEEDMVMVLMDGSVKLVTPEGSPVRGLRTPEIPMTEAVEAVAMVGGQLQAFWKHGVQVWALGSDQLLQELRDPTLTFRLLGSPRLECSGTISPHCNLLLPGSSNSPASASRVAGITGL"}, "[35]": {"tested_on": "FLT3 (human), P36888 [R834Q]"}, "[36]": {"molecular_target": "MAPK12 (human) (UniProt P53778)"}, "[37]": {"molecular_target": "TSSK1B (human) (UniProt Q9BXA7)"}, "[38]": {"molecular_target": "CaMK1 (human) (UniProt Q14012)", "sequence (Q14012 whole entry, looked up)": "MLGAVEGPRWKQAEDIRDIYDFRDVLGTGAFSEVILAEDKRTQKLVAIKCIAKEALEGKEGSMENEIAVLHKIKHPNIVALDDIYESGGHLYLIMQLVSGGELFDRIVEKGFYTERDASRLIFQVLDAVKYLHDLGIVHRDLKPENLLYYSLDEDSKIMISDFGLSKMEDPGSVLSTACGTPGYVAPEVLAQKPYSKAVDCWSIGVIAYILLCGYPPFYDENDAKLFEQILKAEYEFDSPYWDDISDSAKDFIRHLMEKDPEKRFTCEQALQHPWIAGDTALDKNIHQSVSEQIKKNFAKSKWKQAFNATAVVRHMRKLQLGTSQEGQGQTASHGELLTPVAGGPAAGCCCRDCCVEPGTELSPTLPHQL"}, "[39]": {"molecular_target": "EPHB6 (human) (UniProt O15197)"}, "[40]": {"tested_on": "EGFR (human), P00533 [G719S]"}, "[41]": {"molecular_target": "PRKACB (human) (UniProt P22694)"}, "[42]": {"molecular_target": "VRK2 (human) (UniProt Q86Y07)", "sequence (Q86Y07 whole entry, looked up)": "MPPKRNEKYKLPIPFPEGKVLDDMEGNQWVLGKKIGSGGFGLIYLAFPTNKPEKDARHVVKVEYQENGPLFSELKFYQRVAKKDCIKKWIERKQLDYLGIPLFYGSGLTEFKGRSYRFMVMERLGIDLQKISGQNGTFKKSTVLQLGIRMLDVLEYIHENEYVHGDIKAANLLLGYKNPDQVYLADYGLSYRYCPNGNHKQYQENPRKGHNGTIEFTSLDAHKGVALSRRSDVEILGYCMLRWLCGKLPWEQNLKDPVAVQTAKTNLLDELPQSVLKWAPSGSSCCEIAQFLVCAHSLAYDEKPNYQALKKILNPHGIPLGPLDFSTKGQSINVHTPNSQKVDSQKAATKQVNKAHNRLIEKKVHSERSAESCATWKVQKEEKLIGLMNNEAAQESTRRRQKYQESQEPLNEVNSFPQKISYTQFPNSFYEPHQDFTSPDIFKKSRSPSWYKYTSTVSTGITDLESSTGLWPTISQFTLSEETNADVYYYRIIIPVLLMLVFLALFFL"}}, "data": [{"smiles": "N#Cc1ccc2ncnc(NCCc3ccc4ccccc4c3)c2c1", "values": [{"measurement": "kinase still bound, per cent of control", "setting": "[1]", "result": 100, "unit": "%"}, {"measurement": "kinase still bound, per cent of control", "setting": "[2]", "result": 100, "unit": "%"}, {"measurement": "kinase still bound, per cent of control", "setting": "[3]", "result": 96, "unit": "%"}, {"measurement": "kinase still bound, per cent of control", "setting": "[4]", "result": 86, "unit": "%"}, {"measurement": "kinase still bound, per cent of control", "setting": "[5]", "result": 100, "unit": "%"}, {"measurement": "kinase still bound, per cent of control", "setting": "[6]", "result": 100, "unit": "%"}, {"measurement": "kinase still bound, per cent of control", "setting": "[7]", "result": 64, "unit": "%"}, {"measurement": "kinase still bound, per cent of control", "setting": "[8]", "result": 87, "unit": "%"}, {"measurement": "kinase still bound, per cent of control", "setting": "[9]", "result": 97, "unit": "%"}, {"measurement": "kinase still bound, per cent of control", "setting": "[10]", "result": 100, "unit": "%"}, {"measurement": "kinase still bound, per cent of control", "setting": "[11]", "result": 100, "unit": "%"}, {"measurement": "kinase still bound, per cent of control", "setting": "[12]", "result": 85, "unit": "%"}, {"measurement": "kinase still bound, per cent of control", "setting": "[13]", "result": 99, "unit": "%"}, {"measurement": "kinase still bound, per cent of control", "setting": "[14]", "result": 89, "unit": "%"}, {"measurement": "kinase still bound, per cent of control", "setting": "[15]", "result": 98, "unit": "%"}, {"measurement": "kinase still bound, per cent of control", "setting": "[16]", "result": 100, "unit": "%"}, {"measurement": "kinase still bound, per cent of control", "setting": "[17]", "result": 100, "unit": "%"}, {"measurement": "kinase still bound, per cent of control", "setting": "[18]", "result": 100, "unit": "%"}, {"measurement": "kinase still bound, per cent of control", "setting": "[19]", "result": 100, "unit": "%"}, {"measurement": "kinase still bound, per cent of control", "setting": "[20]", "result": 96, "unit": "%"}, {"measurement": "kinase still bound, per cent of control", "setting": "[21]", "result": 100, "unit": "%"}, {"measurement": "kinase still bound, per cent of control", "setting": "[22]", "result": 100, "unit": "%"}, {"measurement": "kinase still bound, per cent of control", "setting": "[23]", "result": 86, "unit": "%"}, {"measurement": "kinase still bound, per cent of control", "setting": "[24]", "result": 79, "unit": "%"}, {"measurement": "kinase still bound, per cent of control", "setting": "[25]", "result": 100, "unit": "%"}, {"measurement": "kinase still bound, per cent of control", "setting": "[26]", "result": 100, "unit": "%"}, {"measurement": "kinase still bound, per cent of control", "setting": "[27]", "result": 96, "unit": "%"}, {"measurement": "kinase still bound, per cent of control", "setting": "[28]", "result": 81, "unit": "%"}, {"measurement": "kinase still bound, per cent of control", "setting": "[29]", "result": 70, "unit": "%"}, {"measurement": "kinase still bound, per cent of control", "setting": "[30]", "result": 51, "unit": "%"}, {"measurement": "kinase still bound, per cent of control", "setting": "[31]", "result": 86, "unit": "%"}, {"measurement": "kinase still bound, per cent of control", "setting": "[32]", "result": 100, "unit": "%"}, {"measurement": "kinase still bound, per cent of control", "setting": "[33]", "result": 85, "unit": "%"}, {"measurement": "kinase still bound, per cent of control", "setting": "[34]", "result": 81, "unit": "%"}, {"measurement": "kinase still bound, per cent of control", "setting": "[35]", "result": 100, "unit": "%"}, {"measurement": "kinase still bound, per cent of control", "setting": "[36]", "result": 100, "unit": "%"}, {"measurement": "kinase still bound, per cent of control", "setting": "[37]", "result": 100, "unit": "%"}, {"measurement": "kinase still bound, per cent of control", "setting": "[38]", "result": 99, "unit": "%"}, {"measurement": "kinase still bound, per cent of control", "setting": "[39]", "result": 100, "unit": "%"}, {"measurement": "kinase still bound, per cent of control", "setting": "[40]", "result": 86, "unit": "%"}, {"measurement": "kinase still bound, per cent of control", "setting": "[41]", "result": 100, "unit": "%"}, {"measurement": "kinase still bound, per cent of control", "setting": "[42]", "result": 100, "unit": "%"}]}]}
